Measured values taken from patent publication US10227376B2, “Radiolabeled cationic steroid antimicrobials and diagnostic methods” (BRIGHAM YOUNG UNIVERSITY, priority 2014, dated 2019).

Assay: Stability of labeled compounds in human serum
Type: in vitro ADME
Conditions: 64Cu labeled compound, four hours, 37 degrees C., 500 rpm incubation
Experimental: Stability of the labeled CSA-150 and CSA-151 compounds of Example 1 was measured. The labeled compounds were placed in human serum for four hours at 37 degrees C. at 500 rpm incubation.

SMILES: CCCCCCCCN(CCCC(C)[C@H]1CC[C@H]2[C@@H]3[C@H](OCCCNC(C)=O)C[C@@H]4C[C@H](OCCCNC(C)=O)CC[C@]4(C)[C@H]3C[C@H](OCCCNC(C)=O)[C@]12C)C(=O)NCCOCCOCCOCCOCCNC(=O)CN1CCN(CC(=O)O)CCN(CC(=O)O)CC1 (stereo partly shown) (64Cu complex, metal not drawn) [CSA-151]
- Stability of the labeled compound (% stable): 100%
